Assay results published in patent US8394398B2 (Abbott Laboratories, priority 1997, dated 2013).
Where two headings read alike, the source gives them in different places.

Tests used:
[1] = Phase 1 multiple escalating dose study, QD intravenous infusion for 14 days, safety and pharmacokinetics; type: in vivo, human; conditions: for AUC(0-inf) / Cmax / clearance / Vd / half-life / AUC: human, whole blood; for AUC: Day 14, blood
Protocol: The present study was designed to evaluate the pharmacokinetics of zotarolimus following multiple dosing and to assess its safety while maximizing systemic exposure of healthy subjects. […] The study investigated pharmacokinetics and safety of zotarolimus in a Phase 1, multiple dose-escalation study following multiple intravenous infusions of 200, 400 and 800 μg doses, every day for fourteen consecutive days in healthy subjects.
Phase 1, multiple-escalating dose, double-blind, placebo-controlled, randomized study. Seventy-two subjects equally divided in 3 once-daily (QD) regimens (200, 400 or 800 μg QD with 16 active and 8 placebo per regimen) were administered a 60-minute QD IV infusion of zotarolimus for 14 consecutive days. Blood samples were collected over 24 hours following the first dose, before dosing on days 10, 11, 12, 13, and for 168 hours following Day 14 dose. Urine samples were collected over 24 hours on days 1, 14, 16, 18 and 20. Blood and urine zotarolimus concentrations were determined using a validated LC/MS/MS method. Pharmacokinetic parameters were determined by compartmental analysis. All Day-AUC0-∞ (area under blood concentration-time curve from time 0 to infinity including all 14 doses) was calculated. Dose and time-linearity and achievement of steady-state were evaluated. Fraction of drug eliminated in urine was determined.
Within each group, subjects were equally divided at the two study sites with each site enrolling 12 subjects (zotarolimus, eight subjects; placebo four subjects). The dosing scheme within each dose group is presented below:
Subjects received, under fasting conditions, a single 60-minute daily (QD) intravenous infusion of 200, 400, or 800 μg of zotarolimus or a matching intravenous infusion of placebo for Groups I, II and III, respectively on Study Days 1 through 14. The drug was administered via a syringe pump connected to a y-site device, which also infused 125-150 mL of 5% aqueous dextrose solution (D5W) over 60 minutes. The groups were dosed sequentially with at least 7 days separating the last dose of the previous group and the first dose of the next group during which time safety data from the previous group was analyzed. Dose escalation was dependent on the safety analysis of the lower dose group.
Five (5)-mL blood samples were collected in potassium EDTA containing tubes to evaluate zotarolimus concentrations prior to dosing (0 hour), and at 0.25, 0.5, 1.0, 1 hour 5 min, 1.25, 1.5, 2, 3, 4, 8, 12, 18 and 24 hours after starting infusion on Study Days 1 and 14. Additional samples were collected at 36, 48, 72, 96, 120, 144 and 168 hours after starting infusion on Study Day 14 and before dosing on Days 10, 11, 12 and 13. Urine was collected in containers without preservatives over the following intervals: 0 to 6, 6 to 12, 12 to 18 and 18 to 24 hours after starting the infusion on Study Days 1, 14, 16, 18 and 20.
Blood and urine concentrations of zotarolimus were determined using a validated liquid/liquid extraction HPLC tandem mass spectrometric method (LC-MS/MS). The lower limit of quantification of zotarolimus was 0.20 ng/mL using 0.3 mL blood sample and 0.50 ng/mL using 0.3 mL urine sample.
Safety was evaluated based on adverse event, physical examination, vital signs, ECG, injection site and laboratory tests assessments
The pharmacokinetic parameter values of zotarolimus were estimated for individual subjects using compartmental analysis. Data from the first dose on Study Day 1, the last dose on Study Day 14 and the trough concentrations on Study Days 10, 11, 12 and 13 were simultaneously modeled for each individual subject. […]

[2] = test system: human coronary artery endothelial cells (hCaEC); assay: 3H-thymidine uptake proliferation assay, hCaEC; type: cell-based; conditions: Homo sapiens, Endothelial cell, 3 h; read-out: hCaEC IC50 Mean ± SEM

Compound: CO[C@H]1C[C@@H]2CC[C@@H](C)[C@@](O)(O2)C(=O)C(=O)N2CCCC[C@H]2C(=O)O[C@H]([C@H](C)C[C@@H]2CC[C@H](n3cnnn3)[C@H](OC)C2)CC(=O)[C@H](C)/C=C(\C)[C@@H](O)[C@@H](OC)C(=O)[C@H](C)C[C@H](C)/C=C/C=C/C=C/1C [zotarolimus]
- fraction of dose recovered in the urine ([1]; 800 μg QD dose group, within a 24-hour period on Day 1 and Day 14): approximately 0.1%
- most common treatment-emergent adverse events ([1]; 200, 400, 800 μg QD IV for 14 days): pain, headache, injection site reaction, dry skin, abdominal pain, diarrhea and rash
- V1, range of means over the studied regimens ([1]; 200-800 μg QD IV for 14 days): 11.3 to 13.1 L
- steady state for QD dosing reached ([1]; first trough samples measured on Day 10): ≤ 10 days
- AUC(0-inf) ([1]; intravenous, 200 μg QD dose group, read-out: median All Day −AUC0-∞): 677 ng·h/mL
- AUC(0-inf) ([1]; intravenous, 400 μg QD dose group, read-out: median All Day −AUC0-∞): 1440 ng·h/mL
- AUC(0-inf) ([1]; intravenous, 800 μg QD dose group, read-out: median All Day −AUC0-∞): 2400 ng·h/mL
- Cmax ([1]; 200 μg QD IV infusion for 14 days, blood, secondary predicted parameter): 11.2 ± 1.1 ng/mL
- clearance ([1]; 200 μg QD IV infusion for 14 days, blood, secondary predicted parameter, read-out: CL (converted)): 70 mL/min
- Vd ([1]; 200 μg QD IV infusion for 14 days, blood, secondary predicted parameter, read-out: Vss): 92.5 ± 13 L
- half-life ([1]; 200 μg QD IV infusion for 14 days, blood, harmonic mean ± pseudo-standard deviation, read-out: t½ (converted)): 24.7 ± 4.6 h
- AUC ([1]; 200 μg QD IV infusion, secondary predicted parameter): 49 ± 6.2 ng·h/mL
- Cmax ([1]; 400 μg QD IV infusion for 14 days, blood, secondary predicted parameter): 21.4 ± 2.4 ng/mL
- clearance ([1]; 400 μg QD IV infusion for 14 days, blood, secondary predicted parameter, read-out: CL (converted)): 66.7 mL/min
- Vd ([1]; 400 μg QD IV infusion for 14 days, blood, secondary predicted parameter, read-out: Vss): 112 ± 21.1 L
- half-life ([1]; 400 μg QD IV infusion for 14 days, blood, harmonic mean ± pseudo-standard deviation, read-out: t½ (converted)): 31 ± 4.6 h
- AUC ([1]; 400 μg QD IV infusion, secondary predicted parameter): 104 ± 19 ng·h/mL
- Cmax ([1]; 800 μg QD IV infusion for 14 days, blood, secondary predicted parameter): 38.7 ± 6.3 ng/mL
- clearance ([1]; 800 μg QD IV infusion for 14 days, blood, secondary predicted parameter, read-out: CL (converted)): 76.7 mL/min
- Vd ([1]; 800 μg QD IV infusion for 14 days, blood, secondary predicted parameter, read-out: Vss): 118 ± 18.7 L
- half-life ([1]; 800 μg QD IV infusion for 14 days, blood, harmonic mean ± pseudo-standard deviation, read-out: t½ (converted)): 30 ± 4.1 h
- AUC ([1]; 800 μg QD IV infusion, secondary predicted parameter): 180 ± 17.4 ng·h/mL
- clearance ([1]; 200-800 μg QD IV for 14 days, read-out: CL, range of means over the studied regimens): 66.7 to 76.7 mL/min
- Vd ([1]; 200-800 μg QD IV for 14 days, read-out: Vss, range of means over the studied regimens): 92.5 to 118 L
- half-life ([1]; 200-800 μg QD IV for 14 days, read-out: terminal elimination t1/2, range of means over the studied regimens): 24.7 to 31 h
- AUC(0-inf) ([1]; 200-800 μg QD IV, time 0 to infinity including all 14 doses, read-out: All Day-AUC0-∞, range over the studied regimens): 677 to 2400 ng·h/mL
- dose proportionality and time dependence of pharmacokinetics ([1]; intravenously for 14 consecutive days): dose proportional and time invariant
- IC50 [2]: 3.2 ± 0.5 nM
